Results published in US11738095B2, “Cyanine-containing compounds for cancer imaging and treatment” (Emory University, priority 2007, dated 2023).

Experiments:
[1] = test system: ARCaPM and PC3 tumors; assay: IR783 imaging of pre-established tumors in live mice, 5 nmol tail vein (FIG. 18); assay type: in vivo, mouse
Excerpt: Intratibial ARCaPM tumors were also established in live mice prior to administration of IR783. 5 nmol of IR783 was given through the tail vein and imaged using a Kodak multimodal imaging system.
Subcutaneous ARCaPM and PC3 (four tumors with different sizes) tumors were established in live mice prior to the administration of IR-783. 5 nmol of IR783 were given to mice through tail vein and imaged using Kodak multimodal-imaging system.

[2] = test system: spontaneous prostate tumor in a TRAMP mouse; assay: imaging of spontaneous TRAMP prostate tumor, fresh and after fixation (FIG. 16B, C); assay type: in vivo
Experimental: NIR imaging studies were performed to assess pharmacokinetics of the IR783 in vivo. […] This mouse was injected i.p with 0.2 μg/kg IR783 at 0 hrs. […] The dye retention in formalin fixed tissues can be as long as several weeks (data not shown).

[3] = test system: human renal tissues freshly obtained from surgery; assay: staining of fresh human renal tumor specimens with IR783 (FIG. 20)
Excerpt: The compounds of the invention can also be used to detect cancer in fresh (or frozen or preserved) cells. In one embodiment of this aspect of the invention, cells are obtained from small needle biopsy, needle aspiration, or other methods as known in the art. The cells after dye uptake is completed can be minced, sliced, smeared onto a slide, or any other preparation. An amount of one or more compound of the invention can be dropped onto the cells or otherwise contacted with the cells (shaken in a tube, for example). […] The cells can be imaged under a fluorescence microscope equipped with a NIR filter, for example.

[4] = test system: RT-4, T24, 253J, TCC; assay: uptake of IR783 in cell lines: bladder; assay type: cell-based, human
Excerpt: (§1) The uptake of IR783 was studied and confirmed in a variety of human cell lines as shown below: […]

[5] = test system: RCC; assay: uptake of IR783 in cell lines: kidney; assay type: cell-based, human
Excerpt: as §1

CC1(C)C(=CC=C2CCCC(C=CC3=[N+](CCCCS(=O)(=O)[O-])c4ccccc4C3(C)C)=C2Cl)N(CCCCS(=O)(=O)[O-])c2ccccc21.[Na+] [IR783]
tumor images ([1]; intratibial ARCaPM tumors, data not shown): Clear tumor images were detected | tumor images ([1]; subcutaneous ARCaPM and PC3 tumors): clear tumor images can be detected | imaging of spontaneous prostate tumor ([2]; 24 hours after administration): could be imaged | dye retention in formalin fixed tissues ([2]; data not shown): several weeks | tolerance of dye accumulation in tumors to fixation ([2]; mouse, in vivo): can tolerate fixation with both paraformaldehyde and glutaraldehyde | distribution in renal tissue, confocal microscopy ([3]; tissues incubated with IR783, washed): concentrated in renal cancer but not normal kidney cells | fluorescence imaging of tumor regions ([3]; tumor, transitional and normal sections): intense uptake and retention | Uptake [4]: Strong | Uptake [5]: Strong
